Assay results: patent publication US20060211698A1, “Bicyclic heteroaryl derivatives for treating viruses” (Genelabs, Inc., priority 2005, published 2006)

These compounds were tested against T1, HCV-NS5b (Hepatitis C virus genotype 1b, UniProt Q9WMX2) (assay: HCV-NS5b Enzyme Assay). Conditions: 1 μM test compound; incorporation of [3H]-UTP, 37° C., 2 hours.
T1 construct: The cloned fragment was missing the C terminus 21 amino acid residues; (His)6 (C); made in house; host or cells: XL-1 cells (E. coli)
Type: biochemical
Description: The coding sequence of NS5b protein was cloned by PCR from pFKI389luc/NS3-3′/ET as described by Lohmann, V., et al. (1999) Science 285, 110-113 using the following primers: • […] (SEQ. ID. NO. 1) • […] (SEQ. ID. NO. 2)
The cloned fragment was missing the C terminus 21 amino acid residues. The cloned fragment is inserted into an IPTG-inducible expression plasmid that provides an epitope tag (His)6 at the carboxy terminus of the protein.
The recombinant enzyme was expressed in XL-1 cells and after induction of expression, the protein was purified using affinity chromatography on a nickel-NTA column. Storage condition is 10 mM Tris-HCl pH 7.5, 50 mM NaCl, 0.1 mM EDTA, 1 mM DTT, 20% glycerol at −20° C.
The polymerase activity was assayed by measuring incorporation of radiolabeled UTP into a RNA product using a biotinylated, heteropolymeric template, which includes a portion of the HCV genome. Typically, the assay mixture […] contains 10 mM Tris-HCl (pH 7.5), 5 mM MgCl2, 0.2 mM EDTA, 10 mM KCl, 1 unit/μL RNAsin. 1 mM DTT, 10 μM each of NTP, including [^3H]-UTP, and 10 ng/μL biotinylated heteropolymeric template. 20× test compound in 2 μl's was then added as a 100% DMSO solution to achieve a final DMSO concentration of 5%. For IC50 determination a 10-point dose response was used. The compounds were serial diluted 2-fold […]. Typically for IC50's, compounds were tested starting at 50 uM or 2 μm depending on the potency. Reactions were started with addition of 10×NS5B in 4 μl's and allowed to incubate at 37° C. for 2 hours. Reactions were quenched with 8 μL of 100 mM EDTA and reaction mixtures (30 μL) were transferred to streptavidin-coated scintillation proximity microtiter plates (FlashPlates) and incubated at 4° C. overnight. Incorporation of radioactivity was determined by scintillation counting (cpm). The % Inhibition at a particular concentration was determined using the following equation, % Inhibition=100−[100*(cpm with inhibitor−bg)/(cpm with no inhibitor−bg)] where bg was the background with no enzyme.

| Compound | % inhibition @ 1 μM [%] | inhibition at 1 µM [%] |
| --- | --- | --- |
| O=C(O)c1ccc2c(C3CCCCC3)c(-c3ccc4nc(-c5ccsc5)ccc4c3)n(CC(=O)N3CCOCC3)c2c1 [Compound 228, 1-[N-morpholinocarbonylmethyl]-2-[2-thien-3-ylquinolin-6-yl]-3-cyclohexyl-1H-indole-6-carboxylic acid] | 96.2 |  |
| Cc1cc(-c2ccc3cc(-c4c(C5CCCCC5)c5ccc(C(=O)O)cc5n4CC(=O)N4CCOCC4)ccc3n2)c(C)o1 [Compound 230, 3-Cyclohexyl-2-[2-(2,5-dimethyl-furan-3-yl)-quinolin-6-yl]-1-(2-morpholin-4-yl-2-oxo-ethyl)-1H-indole-6-carboxylic acid] |  | 92.2 |
| COc1ccccc1-c1ccc2cc(-c3c(C4CCCCC4)c4ccc(C(=O)O)cc4n3CC(=O)N3CCOCC3)ccc2n1 [Compound 233, 3-Cyclohexyl-2-[2-(2-methoxy-phenyl)-quinolin-6-yl]-1-(2-morpholin-4-yl-2-oxo-ethyl)-1H-indole-6-carboxylic acid] |  | 95.7 |
| Cc1csc(-c2ccc3cc(-c4c(C5CCCCC5)c5ccc(C(=O)O)cc5n4CC(=O)N4CCOCC4)ccc3n2)c1 [Compound 234, 3-Cyclohexyl-2-[2-(4-methyl-thiophen-2-yl)-quinolin-6-yl]-1-(2-morpholin-4-yl-2-oxo-ethyl)-1H-indole-6-carboxylic acid] |  | 97.4 |
| Cc1nc(C)c(-c2ccc3cc(-c4c(C5CCCCC5)c5ccc(C(=O)O)cc5n4CC(=O)NCCN4CCOCC4)ccc3n2)s1 [Compound 237, 3-Cyclohexyl-2-[2-(2,4-dimethyl-thiazol-5-yl)-quinolin-6-yl]-1-[(2-morpholin-4-yl-ethylcarbamoyl)-methyl]-1H-indole-6-carboxylic acid] |  | 94.7 |
| Cc1nc(C)c(-c2ccc3cc(-c4c(C5CCCCC5)c5ccc(C(=O)O)c(C)c5n4CC(=O)N4CCOCC4)ccc3n2)s1 [Compound 238, 3-Cyclohexyl-2-[2-(2,4-dimethyl-thiazol-5-yl)-quinolin-6-yl]-7-methyl-1-(2-oxo-2-morpholino-4-yl-ethyl)-1H-indole-6-carboxylic acid] |  | 85.6 |
| Cc1nc(C)c(-c2ccc3cc(-c4c(C5CCCCC5)c5ccc(C(=O)NS(C)(=O)=O)cc5n4CC(=O)N4CCOCC4)ccc3n2)s1 [Compound 240, N-[3-Cyclohexyl-2-[2-(2,4-dimethyl-thiazol-5-yl)-quinolin-6-yl]-1-(2-morpholin-4-yl-2-oxo-ethyl)-1H-indole-6-carbonyl]-methanesulfonamide] |  | 97.7 |
| Cc1nc(C)c(-c2ccc3cc(-c4c(C5CCCCC5)c5ccc(C(=O)O)cc5n4CC(=O)N4CCC(C(=O)O)CC4)ccc3n2)s1 [Compound 241, 1-[2-(4-Carboxy-piperidin-1-yl)-2-oxo-ethyl]-3-cyclohexyl-2-[2-(2,4-dimethyl-thiazol-5-yl)-quinolin-6-yl]-1H-indole-6-carboxylic acid] |  | 94.1 |
| Cc1nc(C)c(-c2ccc3cc(-c4c(C5CCCCC5)c5ccc(C(=O)NCCC#N)cc5n4CC(=O)N4CCOCC4)ccc3n2)s1 [Compound 242, 3-Cyclohexyl-2-[2-(2,4-dimethyl-thiazol-5-yl)-quinolin-6-yl]-1-(2-morpholin-4-yl-2-oxo-ethyl)-1H-indole-6-carboxylic acid (2-cyano-ethyl)-amide] |  | 63.6 |
| Cc1nc(C)c(-c2ccc3cc(-c4c(C5CCCCC5)c5ccc(-c6nnn[nH]6)cc5n4CC(=O)N4CCOCC4)ccc3n2)s1 [Compound 244, 2-[3-Cyclohexyl-2-[2-(2,4-dimethyl-thiazol-5-yl)-quinolin-6-yl]-6-(1H-tetrazol-5-yl)-indol-1-yl]-1-morpholin-4-yl-ethanone] |  | 97.2 |
| O=C(O)c1ccc2c(C3CCCCC3)c(-c3ccc4nc(-c5cccc(OC(F)(F)F)c5)ccc4c3)n(CC(=O)N3CCOCC3)c2c1 [Compound 246, 3-Cyclohexyl-1-(2-morpholin-4-yl-2-oxo-ethyl)-2-[2-(3-trifluoromethoxy-phenyl)-quinolin-6-yl]-1H-indole-6-carboxylic acid] |  | 96.9 |
| O=C(O)c1ccc2c(C3CCCCC3)c(-c3ccc4nc(-c5cccc(C(F)(F)F)c5)ccc4c3)n(CC(=O)N3CCOCC3)c2c1 [Compound 247, 3-Cyclohexyl-1-(2-morpholin-4-yl-2-oxo-ethyl)-2-[2-(3-trifluoromethyl-phenyl)-quinolin-6-yl]-1H-indole-6-carboxylic acid] |  | 98.4 |

Results, then the compound that gave them:

| % inhibition @ 1 μM [%] | inhibition at 1 µM [%] | Compound |
| --- | --- | --- |
| 98.0 |  | O=C(O)c1ccc2c(C3CCCCC3)c(-c3ccc4nc(-c5ccc(Cl)s5)ccc4c3)n(CC(=O)N3CCOCC3)c2c1 [Compound 225, 1-[N-morpholinocarbonylmethyl]-2-[2-(5-chlorothien-2-yl)quinolin-6-yl]-3-cyclohexyl-1H-indole-6-carboxylic acid] |
| 94.5 |  | O=C(O)c1ccc2c(C3CCCCC3)c(-c3ccc4nc(-c5cccnc5)ccc4c3)n(CC(=O)N3CCOCC3)c2c1 [Compound 226, 1-[N-morpholinocarbonylmethyl]-2-[2-pyrid-3-ylquinolin-6-yl]-3-cyclohexyl-1H-indole-6-carboxylic acid] |
| 98.4 |  | O=C(O)c1ccc2c(C3CCCCC3)c(-c3ccc4nc(-c5nccs5)ccc4c3)n(CC(=O)N3CCOCC3)c2c1 [Compound 227, 1-[N-morpholinocarbonylmethyl]-2-[2-thiazol-2-ylquinolin-6-yl]-3-cyclohexyl-1H-indole-6-carboxylic acid] |
|  | 96.5 | Cc1ccsc1-c1ccc2cc(-c3c(C4CCCCC4)c4ccc(C(=O)O)cc4n3CC(=O)N3CCOCC3)ccc2n1 [Compound 229, 3-Cyclohexyl-2-[2-(3-methyl-thiophen-2-yl)-quinolin-6-yl]-1-(2-morpholin-4-yl-2-oxo-ethyl)-1H-indole-6-carboxylic acid] |
|  | 98.7 | Cc1cccc(-c2ccc3cc(-c4c(C5CCCCC5)c5ccc(C(=O)O)cc5n4CC(=O)N4CCOCC4)ccc3n2)c1 [Compound 231, 3-Cyclohexyl-1-(2-morpholin-4-yl-2-oxo-ethyl)-2-(2-m-tolyl-quinolin-6-yl)-1H-indole-6-carboxylic acid] |
|  | 97.5 | Cc1ccccc1-c1ccc2cc(-c3c(C4CCCCC4)c4ccc(C(=O)O)cc4n3CC(=O)N3CCOCC3)ccc2n1 [Compound 232, 3-Cyclohexyl-1-(2-morpholin-4-yl-2-oxo-ethyl)-2-(2-o-tolyl-quinolin-6-yl)-1H-indole-6-carboxylic acid] |
|  | 95.5 | Cc1ccc(-c2ccc3cc(-c4c(C5CCCCC5)c5ccc(C(=O)O)cc5n4CC(=O)N4CCOCC4)ccc3n2)s1 [Compound 235, 3-Cyclohexyl-2-[2-(5-methyl-thiophen-2-yl)-quinolin-6-yl]-1-(2-morpholin-4-yl-2-oxo-ethyl)-1H-indole-6-carboxylic acid] |
|  | 92.5 | Cc1nc(C)c(-c2ccc3cc(-c4c(C5CCCCC5)c5ccc(C(=O)O)cc5n4CC(=O)N4CCC(O)CC4)ccc3n2)s1 [Compound 236, 3-Cyclohexyl-2-[2-(2,4-dimethyl-thiazol-5-yl)-quinolin-6-yl]-1-[2-(4-hydroxy-piperidin-1-yl)-2-oxo-ethyl]-1H-indole-6-carboxylic acid] |
|  | 96.9 | Cc1nc(C)c(-c2ccc3cc(-c4c(C5CCCCC5)c5ccc(C(=O)O)cc5n4CC(=O)Nc4nn[nH]n4)ccc3n2)s1 [Compound 239, 3-Cyclohexyl-2-[2-(2,4-dimethyl-thiazol-5-yl)-quinolin-6-yl]-1-[(2H-tetrazol-5-ylcarbamoyl)-methyl]-1H-indole-6-carboxylic acid] |
|  | 37.8 | Cc1nc(C)c(-c2ccc3cc(-c4c(C5CCCCC5)c5ccc(C#N)cc5n4CC(=O)N4CCOCC4)ccc3n2)s1 [Compound 243, 3-Cyclohexyl-2-[2-(2,4-dimethyl-thiazol-5-yl)-quinolin-6-yl]-1-(2-morpholin-4-yl-2-oxo-ethyl)-1H-indole-6-carbonitrile] |
|  | 91.3 | Cc1nc(C)c(-c2ccc3cc(-c4c(C5CCCCC5)c5ccc(C(=O)NCCc6nnn[nH]6)cc5n4CC(=O)N4CCOCC4)ccc3n2)s1 [Compound 245, 3-Cyclohexyl-2-[2-(2,4-dimethyl-thiazol-5-yl)-quinolin-6-yl]-1-(2-morpholin-4-yl-2-oxo-ethyl)-1H-indole-6-carboxylic acid [2-(1H-tetrazol-5-yl)-ethyl]-amide] |
|  | 95.2 | Cc1nc(C(F)(F)F)sc1-c1ccc2cc(-c3c(C4CCCCC4)c4ccc(C(=O)O)cc4n3CC(=O)N3CCOCC3)ccc2n1 [Compound 248, 3-Cyclohexyl-2-[2-(4-methyl-2-trifluoromethyl-thiazol-5-yl)-quinolin-6-yl]-1-(2-morpholin-4-yl-2-oxo-ethyl)-1H-indole-6-carboxylic acid] |
